PubChem BioAssay (NCI)
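Protocol summary: plate cells (96-well), add compound at 5 concentrations, incubate 48 h, interpolate endpoints linearly. GI50 is the concentration that inhibits growth by half. TGI: total growth inhibition.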

Experiments:
Experiment in all cases: growth of human tumour cells (NCI), 48 h
786-0 renal = tested on: 786-0 renal
A498 renal = tested on: A498 renal
ACHN renal = tested on: ACHN renal
BT-549 breast = tested on: BT-549 breast
CAKI-1 renal = tested on: CAKI-1 renal
CCRF-CEM leukemia = tested on: CCRF-CEM leukemia
COLO 205 colon = tested on: COLO 205 colon
DU-145 prostate = tested on: DU-145 prostate
EKVX NSCLC = tested on: EKVX NSCLC
HCC-2998 colon = tested on: HCC-2998 colon
HCT-116 colon = tested on: HCT-116 colon
HCT-15 colon = tested on: HCT-15 colon
HL-60(TB) leukemia = tested on: HL-60(TB) leukemia
HOP-62 NSCLC = tested on: HOP-62 NSCLC
HOP-92 NSCLC = tested on: HOP-92 NSCLC
HS 578T breast = tested on: HS 578T breast
HT29 colon = tested on: HT29 colon
IGROV1 ovarian = tested on: IGROV1 ovarian
K-562 leukemia = tested on: K-562 leukemia
KM12 colon = tested on: KM12 colon
LOX IMVI melanoma = tested on: LOX IMVI melanoma
MCF7 breast = tested on: MCF7 breast
MDA-MB-231 breast = tested on: MDA-MB-231 breast
MDA-MB-435 = tested on: MDA-MB-435
MOLT-4 leukemia = tested on: MOLT-4 leukemia
NCI-H226 lung = tested on: NCI-H226 lung
NCI-H23 lung = tested on: NCI-H23 lung
NCI-H522 lung = tested on: NCI-H522 lung
NCI/ADR-RES ovarian = tested on: NCI/ADR-RES ovarian
OVCAR-3 ovarian = tested on: OVCAR-3 ovarian
OVCAR-4 ovarian = tested on: OVCAR-4 ovarian
OVCAR-5 ovarian = tested on: OVCAR-5 ovarian
PC-3 prostate = tested on: PC-3 prostate
RPMI-8226 leukemia = tested on: RPMI-8226 leukemia
RXF 393 renal = tested on: RXF 393 renal
SF-268 CNS = tested on: SF-268 CNS
SF-295 CNS = tested on: SF-295 CNS
SF-539 CNS = tested on: SF-539 CNS
SK-MEL-2 melanoma = tested on: SK-MEL-2 melanoma
SK-MEL-28 melanoma = tested on: SK-MEL-28 melanoma
SK-MEL-5 melanoma = tested on: SK-MEL-5 melanoma
SK-OV-3 ovarian = tested on: SK-OV-3 ovarian
SN12C renal = tested on: SN12C renal
SNB-19 CNS = tested on: SNB-19 CNS
SNB-75 CNS = tested on: SNB-75 CNS
SR leukemia = tested on: SR leukemia
SW-620 colon = tested on: SW-620 colon
T-47D breast = tested on: T-47D breast
TK-10 renal = tested on: TK-10 renal
U251 CNS = tested on: U251 CNS
UACC-257 melanoma = tested on: UACC-257 melanoma
UACC-62 melanoma = tested on: UACC-62 melanoma
UO-31 renal = tested on: UO-31 renal

How did the GI50 (786-0 renal) turn out when `c1ccc(-c2n(Cc3ccc4ccccc4c3)c3c4ccccc4c4ccccc4c3[n+]2Cc2ccc3ccccc3c2)cc1` was run?
The GI50 was 0.337 µM.

What about the TGI (786-0 renal) of the same molecule?
Its TGI is 1.34 µM.

And the GI50 (A498 renal)?
Its GI50 is 0.337 µM.

And the TGI (A498 renal)?
Its TGI is 1.23 µM.

And the GI50 (ACHN renal)?
The GI50 was 0.708 µM.

What about the TGI (ACHN renal) of the same molecule?
The TGI was 1.93 µM.

What about the GI50 (BT-549 breast) of the same molecule?
The GI50 was 0.316 µM.

What about the TGI (BT-549 breast) of the same molecule?
Its TGI is 1.29 µM.

And the GI50 (CAKI-1 renal)?
The GI50 was 0.389 µM.

What about the TGI (CAKI-1 renal) of the same molecule?
The TGI was 1.52 µM.

What about the GI50 (CCRF-CEM leukemia) of the same molecule?
Its GI50 is 0.357 µM.

What about the TGI (CCRF-CEM leukemia) of the same molecule?
Its TGI is 1.75 µM.

What about the GI50 (COLO 205 colon) of the same molecule?
Its GI50 is 0.267 µM.

What about the TGI (COLO 205 colon) of the same molecule?
The TGI was 0.795 µM.

What about the GI50 (DU-145 prostate) of the same molecule?
Its GI50 is 0.406 µM.

And the TGI (DU-145 prostate)?
Its TGI is 1.52 µM.

What about the GI50 (EKVX NSCLC) of the same molecule?
The GI50 was 0.552 µM.

What about the TGI (EKVX NSCLC) of the same molecule?
The TGI was 2.03 µM.

And the GI50 (HCC-2998 colon)?
Its GI50 is 0.407 µM.

What about the TGI (HCC-2998 colon) of the same molecule?
The TGI was 1.58 µM.

What about the GI50 (HCT-116 colon) of the same molecule?
Its GI50 is 0.183 µM.

What about the TGI (HCT-116 colon) of the same molecule?
The TGI was 1.14 µM.

What about the GI50 (HCT-15 colon) of the same molecule?
Its GI50 is 0.966 µM.

And the TGI (HCT-15 colon)?
Its TGI is 2.63 µM.

What about the GI50 (HL-60(TB) leukemia) of the same molecule?
Its GI50 is 0.157 µM.

And the TGI (HL-60(TB) leukemia)?
The TGI was 0.38 µM.

What about the GI50 (HOP-62 NSCLC) of the same molecule?
The GI50 was 0.358 µM.

What about the TGI (HOP-62 NSCLC) of the same molecule?
Its TGI is 1.59 µM.

What about the GI50 (HOP-92 NSCLC) of the same molecule?
The GI50 was 0.211 µM.

And the TGI (HOP-92 NSCLC)?
Its TGI is 0.74 µM.

And the GI50 (HS 578T breast)?
Its GI50 is 0.434 µM.

And the TGI (HS 578T breast)?
Its TGI is 2.05 µM.

And the GI50 (HT29 colon)?
The GI50 was 0.179 µM.

And the TGI (HT29 colon)?
The TGI was 1.38 µM.

What about the GI50 (IGROV1 ovarian) of the same molecule?
The GI50 was 0.192 µM.

What about the TGI (IGROV1 ovarian) of the same molecule?
The TGI was 1.34 µM.

And the GI50 (K-562 leukemia)?
Its GI50 is 0.271 µM.

What about the TGI (K-562 leukemia) of the same molecule?
The TGI was 1.18 µM.

What about the GI50 (KM12 colon) of the same molecule?
Its GI50 is 0.395 µM.

What about the TGI (KM12 colon) of the same molecule?
Its TGI is 1.51 µM.

What about the GI50 (LOX IMVI melanoma) of the same molecule?
The GI50 was 0.177 µM.

And the TGI (LOX IMVI melanoma)?
The TGI was 0.355 µM.

What about the GI50 (MCF7 breast) of the same molecule?
Its GI50 is 0.304 µM.

What about the TGI (MCF7 breast) of the same molecule?
Its TGI is 1.36 µM.

And the GI50 (MDA-MB-231 breast)?
The GI50 was 0.313 µM.

What about the TGI (MDA-MB-231 breast) of the same molecule?
The TGI was 1.06 µM.

What about the GI50 (MDA-MB-435) of the same molecule?
Its GI50 is 0.34 µM.

What about the TGI (MDA-MB-435) of the same molecule?
Its TGI is 1.25 µM.

And the GI50 (MOLT-4 leukemia)?
Its GI50 is 0.377 µM.

And the TGI (MOLT-4 leukemia)?
The TGI was 1.39 µM.

And the GI50 (NCI-H226 lung)?
Its GI50 is 0.408 µM.

What about the TGI (NCI-H226 lung) of the same molecule?
Its TGI is 1.85 µM.

And the GI50 (NCI-H23 lung)?
Its GI50 is 0.228 µM.

What about the TGI (NCI-H23 lung) of the same molecule?
Its TGI is 0.79 µM.

What about the GI50 (NCI-H522 lung) of the same molecule?
The GI50 was 0.34 µM.

What about the TGI (NCI-H522 lung) of the same molecule?
The TGI was 1.63 µM.

And the GI50 (NCI/ADR-RES ovarian)?
Its GI50 is 1.63 µM.

And the TGI (NCI/ADR-RES ovarian)?
Its TGI is 3.66 µM.

What about the GI50 (OVCAR-3 ovarian) of the same molecule?
Its GI50 is 0.351 µM.

And the TGI (OVCAR-3 ovarian)?
The TGI was 1.23 µM.

What about the GI50 (OVCAR-4 ovarian) of the same molecule?
The GI50 was 0.298 µM.

And the TGI (OVCAR-4 ovarian)?
The TGI was 1.27 µM.

And the GI50 (OVCAR-5 ovarian)?
Its GI50 is 0.423 µM.

And the TGI (OVCAR-5 ovarian)?
Its TGI is 1.7 µM.

What about the GI50 (PC-3 prostate) of the same molecule?
The GI50 was 0.313 µM.

And the TGI (PC-3 prostate)?
Its TGI is 1.22 µM.

And the GI50 (RPMI-8226 leukemia)?
The GI50 was 0.261 µM.

And the TGI (RPMI-8226 leukemia)?
Its TGI is 1.04 µM.

What about the GI50 (RXF 393 renal) of the same molecule?
Its GI50 is 0.28 µM.

What about the TGI (RXF 393 renal) of the same molecule?
The TGI was 1.03 µM.

What about the GI50 (SF-268 CNS) of the same molecule?
The GI50 was 0.441 µM.

And the TGI (SF-268 CNS)?
The TGI was 1.84 µM.

What about the GI50 (SF-295 CNS) of the same molecule?
Its GI50 is 0.282 µM.

What about the TGI (SF-295 CNS) of the same molecule?
The TGI was 1.11 µM.

And the GI50 (SF-539 CNS)?
The GI50 was 0.375 µM.

What about the TGI (SF-539 CNS) of the same molecule?
The TGI was 1.4 µM.

And the GI50 (SK-MEL-2 melanoma)?
The GI50 was 0.294 µM.

And the TGI (SK-MEL-2 melanoma)?
Its TGI is 0.853 µM.

What about the GI50 (SK-MEL-28 melanoma) of the same molecule?
The GI50 was 0.569 µM.

What about the TGI (SK-MEL-28 melanoma) of the same molecule?
The TGI was 1.87 µM.

What about the GI50 (SK-MEL-5 melanoma) of the same molecule?
The GI50 was 0.203 µM.

What about the TGI (SK-MEL-5 melanoma) of the same molecule?
Its TGI is 0.437 µM.

And the GI50 (SK-OV-3 ovarian)?
Its GI50 is 0.317 µM.

And the TGI (SK-OV-3 ovarian)?
The TGI was 1.12 µM.

And the GI50 (SN12C renal)?
Its GI50 is 0.323 µM.

What about the TGI (SN12C renal) of the same molecule?
Its TGI is 1.21 µM.

And the GI50 (SNB-19 CNS)?
The GI50 was 0.364 µM.

What about the TGI (SNB-19 CNS) of the same molecule?
Its TGI is 1.45 µM.

And the GI50 (SNB-75 CNS)?
The GI50 was 0.303 µM.

And the TGI (SNB-75 CNS)?
Its TGI is 1.4 µM.

What about the GI50 (SR leukemia) of the same molecule?
Its GI50 is 0.245 µM.

What about the TGI (SR leukemia) of the same molecule?
Its TGI is 0.825 µM.

What about the GI50 (SW-620 colon) of the same molecule?
Its GI50 is 0.329 µM.

What about the TGI (SW-620 colon) of the same molecule?
Its TGI is 1.37 µM.

What about the GI50 (T-47D breast) of the same molecule?
The GI50 was 0.367 µM.

And the TGI (T-47D breast)?
Its TGI is 1.84 µM.

And the GI50 (TK-10 renal)?
The GI50 was 0.468 µM.

What about the TGI (TK-10 renal) of the same molecule?
Its TGI is 2 µM.

What about the GI50 (U251 CNS) of the same molecule?
Its GI50 is 0.312 µM.

What about the TGI (U251 CNS) of the same molecule?
Its TGI is 1.56 µM.

What about the GI50 (UACC-257 melanoma) of the same molecule?
The GI50 was 0.328 µM.

And the TGI (UACC-257 melanoma)?
Its TGI is 1.24 µM.

What about the GI50 (UACC-62 melanoma) of the same molecule?
Its GI50 is 0.343 µM.

And the TGI (UACC-62 melanoma)?
The TGI was 1.4 µM.

And the GI50 (UO-31 renal)?
Its GI50 is 1.55 µM.

And the TGI (UO-31 renal)?
Its TGI is 3.22 µM.
